According to patent publication US9458187B2, “Methods for treatment of inflammatory conditions using S-[4-(3-fleuro-3-methylbutyryloxy)but-2-ynyl]6α, 9α-difluoro-17α-(furan-2-yl) carbonyloxy-11β-hydroxy-16α-methyl-3-oxoandrosta-1,4-diene-17β-carbothioate” (Sun Pharma Advanced Research Company Limited, priority 2013, dated 2016):
pIC50, pKi: −log10 of the molar value.

How the values were obtained:
Aldosterone receptor = molecular target: T1, Aldosterone receptor (Rattus norvegicus, UniProt P22199); test: Steroidal receptor binding screen, aldosterone
T1 construct: aldosterone (Wistar rat kidney); from tissue; host or cells: Wistar rat kidney
T1 sequence (P22199 1-981): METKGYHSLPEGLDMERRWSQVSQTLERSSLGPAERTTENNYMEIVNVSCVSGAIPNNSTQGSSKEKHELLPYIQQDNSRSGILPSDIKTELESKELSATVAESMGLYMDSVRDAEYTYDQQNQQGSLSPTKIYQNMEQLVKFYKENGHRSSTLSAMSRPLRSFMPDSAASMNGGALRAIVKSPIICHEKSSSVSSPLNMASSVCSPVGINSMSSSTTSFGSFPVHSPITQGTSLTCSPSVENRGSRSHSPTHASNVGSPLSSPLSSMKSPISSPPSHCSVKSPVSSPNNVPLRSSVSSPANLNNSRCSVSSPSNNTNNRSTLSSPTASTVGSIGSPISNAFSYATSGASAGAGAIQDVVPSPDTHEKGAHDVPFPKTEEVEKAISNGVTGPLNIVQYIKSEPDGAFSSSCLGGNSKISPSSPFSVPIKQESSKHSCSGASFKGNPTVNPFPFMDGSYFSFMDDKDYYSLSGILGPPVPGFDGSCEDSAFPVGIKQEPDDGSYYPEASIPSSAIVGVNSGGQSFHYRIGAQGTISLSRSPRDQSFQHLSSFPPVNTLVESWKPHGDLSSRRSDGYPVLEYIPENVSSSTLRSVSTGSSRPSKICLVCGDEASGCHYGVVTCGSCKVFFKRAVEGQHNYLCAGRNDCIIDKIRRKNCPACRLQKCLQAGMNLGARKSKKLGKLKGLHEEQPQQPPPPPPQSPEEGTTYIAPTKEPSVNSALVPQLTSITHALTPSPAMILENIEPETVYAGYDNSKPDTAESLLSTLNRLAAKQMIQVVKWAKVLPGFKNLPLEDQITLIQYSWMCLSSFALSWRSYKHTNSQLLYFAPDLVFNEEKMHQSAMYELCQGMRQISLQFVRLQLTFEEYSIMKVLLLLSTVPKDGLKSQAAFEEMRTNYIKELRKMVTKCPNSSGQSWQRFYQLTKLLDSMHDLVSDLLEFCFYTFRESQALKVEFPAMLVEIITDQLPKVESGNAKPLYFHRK
Text: For determination of binding to other related steroidal receptors by compound of the present invention cloned receptors from cells indicated in the parentheses were used: estrogen Erα/Erβ and progesterone (human recombinant insect Sf9), testosterone (human LnCAP) and aldosterone (Wistar rat kidney).

[1] = Sephadex-induced lung edema; format: in vivo, SD rats; details: Sprague-Dawley, rat, thymus, other: intratracheal; i.t., 24 hrs and 2 hrs prior to Sephadex; read-out: ED50 Thymus involution
Procedure: (§1) Sephadex® G-200 was prepared in sterile saline (10 mg/ml) and allowed to swell for at least 3 days at room temperature. Test compounds were administered intratracheally at 24 hrs and 2 hrs prior to intratracheal administration of Sephadex® (5 mg/kg) under light ether anesthesia. Vehicle control animals were administered vehicle instead of Sephadex®. At 24 hr after Sephadex® instillation, lung and thymus were excised from individual animals and weighed. Wet weights of lungs and thymus were corrected for 100 g of initial body weight. The percentage increase in lung weight caused by Sephadex® and its inhibitions by the compounds, were calculated. The percentage inhibitions of thymus compared to vehicle control group were also calculated

[2] = system: Sephadex-induced lung edema; test: Sephadex-induced lung edema; format: in vivo, SD rats; details: Rattus norvegicus; i.t., 24 hrs and 2 hrs prior to Sephadex; read-out: ED50 Lung edema inhibition
Procedure: as §1

[3] = system: liver glycogen deposition; test: Liver glycogen deposition; format: in vivo, Male Sprague Dawley rats; details: 3 mg/kg intratracheal, 2 doses 24 hrs apart, adrenalectomized rats
Procedure: Male Sprague Dawley rats, weighing 190-220 g were bilaterally adrenalectomized and maintained on 0.9% saline solution throughout the experiment. On day 5th and 6th of adrenalectomy, animals were made into different groups, test compounds prepared in cold saline (sonicated for 30 min) were instilled intratracheally 2 doses @3 mg/kg, 24 hrs apart. At 15 hrs after the last treatment, animals were sacrificed and livers were excised and weighed. The glycogen content of the livers was determined by anthrone method. Briefly, a weighed quantity of liver tissue was homogenized with 5% trichloroacetic acid, supernatant mixed with ethanol and kept overnight for precipitation. The glycogen thus extracted was estimated as glucose generated after acid hydrolysis by addition of anthrone reagent at 620 nm. Glycogen content was expressed as mg/100 g liver.

[4] = system: ovalbumin-induced increase in intranasal pressure; test: Ovalbumin-induced increase in intranasal pressure; format: in vivo, guinea pigs; details: intranasal instillation 24 hr and 2 hr prior to ovalbumin challenge; FIG. 2
Procedure: Animals sensitized with ovalbumin as described above were used for experiments determining intranasal pressure. Intranasal instillation of compound of formula I, fluticasone propionate or placebo was done 24 hr and 2 hr prior to challenge with ovalbumin. The nasopharynx was catheterized with a PE cannula, one end of which was attached to pressure transducer and other to the nebulizer. Ovalbumin (5%) was nebulized into the nasal cavity for 10 min. The changes in intranasal pressure were recorded for following 45 min and differential pressure (dP) was calculated.

[5] = system: Seasonal Allergic Rhinitis; test: Efficacy and safety by intranasal administration, Seasonal Allergic Rhinitis Environmental Exposure Chamber study; format: in vivo, human; details: patients, intranasal 100, 200 or 400 μg BID, 2 weeks, versus placebo
Procedure: The present study was conducted to determine the efficacy and safety of the compound of the present invention via intranasal route in Seasonal Allergic Rhinitis model. This was a single-centered, randomized, double-blind, placebo-controlled parallel group study.
OBJECTIVE: The objective of the study was to assess the efficacy and safety of the compound of the present invention via intranasal route compared to placebo in alleviating the signs and symptoms of Seasonal Allergic Rhinitis in Environmental Exposure Chamber Model (EEC) after 2 weeks of treatment.
METHODS: In this study, male and female patients aged 18-65 years with history of seasonal allergic rhinitis and positive skin prick test to Dactylis glomerate within 12 months prior to screening and with TNSS score of >6 at least once during the 2 hour-screening EEC were included. Total 159 patients were included in the study and total 154 patients were considered for efficacy analysis. […]
Primary efficacy endpoint was change in TNSS (Total Nasal Symptom Score) in a 4-hour environmental challenge with Dactylis glomerate pollen in an EEC from baseline to Day 15/16. The TNSS was calculated as summation of 4 point severity scale (0=None, 1=Mild, 2=Moderate and 3=Severe) for each symptom (Nasal congestion, Rhinorrhea, Nasal itching and Sneezing). […]

C[C@@H]1CC2C3C[C@H](F)C4=CC(=O)C=C[C@]4(C)[C@@]3(F)[C@@H](O)C[C@]2(C)[C@@]1(OC(=O)c1ccco1)C(=O)SCC#CCOC(=O)CC(C)(C)F (stereo partly drawn) [Formula I, S-[4-(3-Fluoro-3-methylbutyryloxy)but-2-ynyl]6α,9α-difluoro-17α-(furan-2-yl)carbonyloxy-11β-hydroxy-16α-methyl-3-oxoandrosta-1,4-diene-17β-carbothioate]
pIC50 (Aldosterone receptor): 6.48
pKi (Aldosterone receptor): 6.59
ED50 at 24 h [1]: 8.7 mg/kg
ED50 [2]: 0.094 mg/kg
Glycogen content [3]: 10.68 mg/100 g liver
inhibition of intranasal pressure [4]: equivalent inhibition
primary and secondary efficacy endpoints (change in TNSS, TNSS subscales, nasal secretion) [5]: statistically superior to the placebo
safety profile (treatment-emergent adverse events) [5]: no significant difference in the safety profile
